According to PubChem BioAssay (NCI):
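Five concentrations, 48 hours, 96-well plates. TGI marks complete inhibition of growth.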

Key:
Assay in all cases: NCI tumour cell line growth inhibition, 48 h
786-0 renal = test system: 786-0 renal
A498 renal = test system: A498 renal
A549 NSCLC = test system: A549 NSCLC
ACHN renal = test system: ACHN renal
BT-549 breast = test system: BT-549 breast
CAKI-1 renal = test system: CAKI-1 renal
CCRF-CEM leukemia = test system: CCRF-CEM leukemia
COLO 205 colon = test system: COLO 205 colon
DU-145 prostate = test system: DU-145 prostate
EKVX NSCLC = test system: EKVX NSCLC
HCC-2998 colon = test system: HCC-2998 colon
HCT-116 colon = test system: HCT-116 colon
HCT-15 colon = test system: HCT-15 colon
HOP-62 NSCLC = test system: HOP-62 NSCLC
HOP-92 NSCLC = test system: HOP-92 NSCLC
HS 578T breast = test system: HS 578T breast
HT29 colon = test system: HT29 colon
IGROV1 ovarian = test system: IGROV1 ovarian
K-562 leukemia = test system: K-562 leukemia
KM12 colon = test system: KM12 colon
LOX IMVI melanoma = test system: LOX IMVI melanoma
M14 melanoma = test system: M14 melanoma
MALME-3M melanoma = test system: MALME-3M melanoma
MCF7 breast = test system: MCF7 breast
MDA-MB-231 breast = test system: MDA-MB-231 breast
MDA-MB-435 = test system: MDA-MB-435
MDA-N = test system: MDA-N
MOLT-4 leukemia = test system: MOLT-4 leukemia
NCI-H226 lung = test system: NCI-H226 lung
NCI-H23 lung = test system: NCI-H23 lung
NCI-H460 lung = test system: NCI-H460 lung
NCI-H522 lung = test system: NCI-H522 lung
NCI/ADR-RES ovarian = test system: NCI/ADR-RES ovarian
OVCAR-3 ovarian = test system: OVCAR-3 ovarian
OVCAR-4 ovarian = test system: OVCAR-4 ovarian
OVCAR-5 ovarian = test system: OVCAR-5 ovarian
OVCAR-8 ovarian = test system: OVCAR-8 ovarian
PC-3 prostate = test system: PC-3 prostate
RPMI-8226 leukemia = test system: RPMI-8226 leukemia
RXF 393 renal = test system: RXF 393 renal
SF-268 CNS = test system: SF-268 CNS
SF-295 CNS = test system: SF-295 CNS
SF-539 CNS = test system: SF-539 CNS
SK-MEL-2 melanoma = test system: SK-MEL-2 melanoma
SK-MEL-28 melanoma = test system: SK-MEL-28 melanoma
SK-MEL-5 melanoma = test system: SK-MEL-5 melanoma
SK-OV-3 ovarian = test system: SK-OV-3 ovarian
SN12C renal = test system: SN12C renal
SNB-19 CNS = test system: SNB-19 CNS
SR leukemia = test system: SR leukemia
SW-620 colon = test system: SW-620 colon
T-47D breast = test system: T-47D breast
TK-10 renal = test system: TK-10 renal
U251 CNS = test system: U251 CNS
UACC-257 melanoma = test system: UACC-257 melanoma
UACC-62 melanoma = test system: UACC-62 melanoma
UO-31 renal = test system: UO-31 renal

Measured: TGI

COc1cc2c3c4[n+](cc2c(OC)c1OC)CCC4CCC3 (configuration not stated)
> 65.8 µM: MALME-3M melanoma
> 53.3 µM: SK-MEL-5 melanoma
99.5 µM: KM12 colon
> 84.7 µM: COLO 205 colon
> 100 µM: all other assays above
